Calls of active or inactive are those of the source.
Assays:
[1] = biological target: T1, Signal recognition particle receptor subunit alpha (Homo sapiens, UniProt P08240)
T1 sequence (P08240 whole entry): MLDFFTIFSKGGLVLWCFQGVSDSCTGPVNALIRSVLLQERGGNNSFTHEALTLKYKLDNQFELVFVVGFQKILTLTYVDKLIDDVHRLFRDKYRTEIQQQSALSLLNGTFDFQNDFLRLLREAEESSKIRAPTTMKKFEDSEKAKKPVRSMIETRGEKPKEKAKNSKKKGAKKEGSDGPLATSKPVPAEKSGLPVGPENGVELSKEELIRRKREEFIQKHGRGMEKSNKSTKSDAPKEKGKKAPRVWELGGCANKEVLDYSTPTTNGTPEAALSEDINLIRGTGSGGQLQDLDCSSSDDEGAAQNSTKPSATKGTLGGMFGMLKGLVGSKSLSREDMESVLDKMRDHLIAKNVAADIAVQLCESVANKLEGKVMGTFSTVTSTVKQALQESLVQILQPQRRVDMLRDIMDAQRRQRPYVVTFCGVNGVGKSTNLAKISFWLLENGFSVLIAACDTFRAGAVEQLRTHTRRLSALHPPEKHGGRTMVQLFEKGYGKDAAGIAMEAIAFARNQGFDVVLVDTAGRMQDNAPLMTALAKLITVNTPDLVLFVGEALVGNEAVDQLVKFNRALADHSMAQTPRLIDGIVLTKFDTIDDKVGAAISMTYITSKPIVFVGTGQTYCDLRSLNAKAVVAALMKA

[2] = biological target: T2, Adenine phosphoribosyltransferase (Homo sapiens, UniProt P07741)
T2 sequence (P07741 whole entry): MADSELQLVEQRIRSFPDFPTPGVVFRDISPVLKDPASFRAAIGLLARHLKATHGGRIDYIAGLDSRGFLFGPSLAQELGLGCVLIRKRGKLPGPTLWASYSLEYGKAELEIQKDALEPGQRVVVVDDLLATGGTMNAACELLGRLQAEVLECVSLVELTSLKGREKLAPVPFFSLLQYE

[3] = biological target: Inosine-5'-monophosphate dehydrogenase 2 (Homo sapiens, UniProt P12268)
[4] = biological target: T3, DNA replication licensing factor MCM4 (Homo sapiens, UniProt P33991)
T3 sequence (P33991 whole entry): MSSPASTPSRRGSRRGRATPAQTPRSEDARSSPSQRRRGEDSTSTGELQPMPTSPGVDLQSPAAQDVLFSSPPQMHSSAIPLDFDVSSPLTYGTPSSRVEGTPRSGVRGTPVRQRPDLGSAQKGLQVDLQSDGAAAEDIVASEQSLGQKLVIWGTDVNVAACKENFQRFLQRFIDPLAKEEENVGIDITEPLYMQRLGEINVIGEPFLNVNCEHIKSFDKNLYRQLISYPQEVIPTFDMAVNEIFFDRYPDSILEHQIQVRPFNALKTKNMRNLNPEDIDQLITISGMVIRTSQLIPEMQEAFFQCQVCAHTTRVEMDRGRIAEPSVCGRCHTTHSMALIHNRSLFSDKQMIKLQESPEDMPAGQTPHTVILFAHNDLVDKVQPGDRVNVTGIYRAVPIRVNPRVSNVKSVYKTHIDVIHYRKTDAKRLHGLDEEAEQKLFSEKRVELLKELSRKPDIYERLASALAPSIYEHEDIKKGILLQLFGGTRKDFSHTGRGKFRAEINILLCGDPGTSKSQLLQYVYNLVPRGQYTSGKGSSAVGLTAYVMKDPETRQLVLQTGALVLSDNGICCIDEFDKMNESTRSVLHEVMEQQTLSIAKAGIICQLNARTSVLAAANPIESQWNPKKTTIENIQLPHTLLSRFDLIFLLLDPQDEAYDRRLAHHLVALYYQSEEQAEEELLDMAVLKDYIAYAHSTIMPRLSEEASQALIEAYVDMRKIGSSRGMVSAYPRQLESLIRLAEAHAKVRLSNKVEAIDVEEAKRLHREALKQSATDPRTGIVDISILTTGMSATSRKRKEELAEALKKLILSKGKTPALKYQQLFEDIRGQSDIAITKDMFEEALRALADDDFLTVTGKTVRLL

[5] = biological target: Ras-related protein Rab-6A (Homo sapiens, UniProt P20340)
[6] = biological target: Phosphatidylethanolamine-binding protein 1 (Homo sapiens, UniProt P30086)
LIM domain kinase 2 = LIM domain kinase 2 (Homo sapiens, UniProt P53671)
[7] = biological target: Mitogen-activated protein kinase 11 (Homo sapiens, UniProt Q15759)

Measured: Kd
Note: in the data inactive means no Kd found up to 30 µM.

Phosphatidylethanolamine-binding protein 1, sequence (P30086 whole entry, the tested form may be a part): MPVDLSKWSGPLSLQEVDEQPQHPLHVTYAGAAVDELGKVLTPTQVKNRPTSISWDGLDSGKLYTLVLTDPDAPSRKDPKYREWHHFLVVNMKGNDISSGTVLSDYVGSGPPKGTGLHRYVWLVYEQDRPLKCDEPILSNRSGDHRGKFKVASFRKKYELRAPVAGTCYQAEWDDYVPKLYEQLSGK
Mitogen-activated protein kinase 11, sequence (Q15759 whole entry): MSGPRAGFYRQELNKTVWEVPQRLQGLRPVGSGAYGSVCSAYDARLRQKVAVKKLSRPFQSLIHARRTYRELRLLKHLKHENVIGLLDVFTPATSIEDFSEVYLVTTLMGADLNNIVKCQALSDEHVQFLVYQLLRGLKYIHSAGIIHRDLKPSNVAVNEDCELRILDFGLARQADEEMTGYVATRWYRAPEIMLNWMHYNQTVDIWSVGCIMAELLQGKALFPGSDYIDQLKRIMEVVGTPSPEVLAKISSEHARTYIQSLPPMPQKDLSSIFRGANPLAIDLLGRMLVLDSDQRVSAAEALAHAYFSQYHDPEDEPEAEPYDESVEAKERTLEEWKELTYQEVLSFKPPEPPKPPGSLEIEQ
LIM domain kinase 2, sequence (P53671 whole entry, the tested form may be a part): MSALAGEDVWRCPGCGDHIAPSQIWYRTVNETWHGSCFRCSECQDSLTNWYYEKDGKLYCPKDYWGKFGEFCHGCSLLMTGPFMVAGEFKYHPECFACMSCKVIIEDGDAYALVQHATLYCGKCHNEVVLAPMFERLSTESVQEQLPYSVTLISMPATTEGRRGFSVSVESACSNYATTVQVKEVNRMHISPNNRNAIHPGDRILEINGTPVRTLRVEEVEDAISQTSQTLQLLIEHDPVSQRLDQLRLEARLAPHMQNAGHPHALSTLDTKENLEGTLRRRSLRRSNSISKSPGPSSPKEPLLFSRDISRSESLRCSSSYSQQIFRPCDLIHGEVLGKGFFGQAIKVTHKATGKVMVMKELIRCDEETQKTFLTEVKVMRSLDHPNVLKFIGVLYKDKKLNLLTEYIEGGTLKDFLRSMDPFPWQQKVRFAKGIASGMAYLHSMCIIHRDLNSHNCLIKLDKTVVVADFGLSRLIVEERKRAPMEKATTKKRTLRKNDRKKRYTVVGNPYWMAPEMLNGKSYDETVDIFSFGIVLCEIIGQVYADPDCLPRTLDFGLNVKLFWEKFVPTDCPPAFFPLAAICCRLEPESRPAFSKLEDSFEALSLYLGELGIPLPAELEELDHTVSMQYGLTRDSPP
Ras-related protein Rab-6A, sequence (P20340 whole entry): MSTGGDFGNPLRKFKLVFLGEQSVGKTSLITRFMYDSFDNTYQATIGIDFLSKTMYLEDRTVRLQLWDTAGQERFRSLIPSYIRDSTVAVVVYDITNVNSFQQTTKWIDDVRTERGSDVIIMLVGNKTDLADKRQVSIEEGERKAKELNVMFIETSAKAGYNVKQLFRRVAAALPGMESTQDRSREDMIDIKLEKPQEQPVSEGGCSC

CO[C@H]1C[C@@H]2CC[C@@H](C)[C@@](O)(O2)C(=O)C(=O)N2CCCC[C@H]2C(=O)O[C@H]([C@H](C)C[C@@H]2CC[C@@H](O)[C@H](OC)C2)CC(=O)[C@H](C)/C=C(\C)[C@@H](O)[C@@H](OC)C(=O)[C@H](C)C[C@H](C)/C=C/C=C/C=C/1C [SIROLIMUS]
inactive: [1] > 30 µM | [2] > 30 µM | [3] > 30 µM | [4] > 30 µM | [5] > 30 µM | [6] > 30 µM | LIM domain kinase 2 > 30 µM | [7] > 30 µM

CO[C@H]1C[C@@H]2CC[C@@H](C)[C@@](O)(O2)C(=O)C(=O)N2CCCC[C@H]2C(=O)O[C@H]([C@H](C)C[C@@H]2CC[C@@H](OC(=O)C(C)(CO)CO)[C@H](OC)C2)CC(=O)[C@H](C)/C=C(\C)[C@@H](O)[C@@H](OC)C(=O)[C@H](C)C[C@H](C)/C=C/C=C/C=C/1C [TEMSIROLIMUS]
inactive: [1] > 30 µM | [2] > 30 µM | [3] > 30 µM | [4] > 30 µM | [5] > 30 µM | [6] > 30 µM | LIM domain kinase 2 > 30 µM | [7] > 30 µM

COc1cc2c(Nc3ccc(Cl)c(Cl)c3F)ncnc2cc1OC[C@@H]1C[C@@H]2CN(C)C[C@@H]2C1 [TESEVATINIB]
inactive: [1] > 30 µM | [2] > 30 µM | [3] > 30 µM | [4] > 30 µM | [5] > 30 µM | [6] > 30 µM | LIM domain kinase 2 > 30 µM | [7] > 30 µM

O=C(Cc1ccc(-c2ccc(OCCN3CCOCC3)cc2)cn1)NCc1ccccc1 [TIRBANIBULIN]
inactive: [1] > 30 µM | [2] > 30 µM | [3] > 30 µM | [4] > 30 µM | [5] > 30 µM | [6] > 30 µM | LIM domain kinase 2 > 30 µM | [7] > 30 µM

O=C1NC(=O)[C@@H](c2cn3c4c(cccc24)CCC3)[C@@H]1c1c[nH]c2ccccc12 [TIVANTINIB]
inactive: [1] > 30 µM | [2] > 30 µM | [3] > 30 µM | [4] > 30 µM | [5] > 30 µM | [6] > 30 µM | LIM domain kinase 2 > 30 µM | [7] > 30 µM

C[C@@H](N)c1ccc(C(=O)Nc2ccnc3[nH]ccc23)cc1 [Y-39983]
inactive: [1] > 30 µM | [2] > 30 µM | [3] > 30 µM | [4] > 30 µM | [5] > 30 µM | [6] > 30 µM | LIM domain kinase 2 > 30 µM | [7] > 30 µM

CN1C/C=C/CCOc2cccc(c2)-c2ccnc(n2)Nc2cccc(c2)C1 [ZOTIRACICLIB]
inactive: [1] > 30 µM | [2] > 30 µM | [3] > 30 µM | [4] > 30 µM | [5] > 30 µM | [6] > 30 µM | LIM domain kinase 2 > 30 µM | [7] > 30 µM

— ChEMBL document CHEMBL3991601, “The target landscape of clinical kinase drugs” (Science, 2017)
